# Data from patent publication US20190271703A1, “BIOMARKERS AND TREATMENTS FOR METASTATIC CANCER” (DUKE UNIVERSITY, priority 2016, published 2019).
# Test system: Pro-N-cadherin-positive and pro-N-cadherin-negative SUM159 sorted cells
# Test: Clonogenic assay on pro-N-cadherin-sorted cells
# Assay type: cell-based
# Conditions: docetaxel 50, 75, 100, 150 nM for 48 h; pro-N-cadherin positive vs negative population
# Procedure: Pro-N-cadherin-positive and pro-N-cadherin-negative SUM159 sorted cells were exposed to the indicated docetaxel concentrations and surviving fraction was determined in a clonogenic assay. Mean# colonies from three wells (+/−SEM) was determined for each cell population.
# Pro-N-cadherin-positive and Pro-N-cadherin-negative populations were sorted from untreated SUM159 cells, seeded into 6 well plates ([…]) at varying cell densities, and incubated at 37° C., 5% C02 overnight. The next day, culture medium was removed and treatments were added [no treatment, Docetaxel (50 nM, 75 nM, 100 nM and 150 nM]. After 48 h, treatments were removed, cells were washed with HBSS, and fresh culture medium (lacking drug) was added. Every three days, culture medium was changed and plates were examined for colony formation. To stain colonies, plates were fixed in 10% Acetone/10% Methanol solution for 10 min. Colonies were stained with 2% Crystal Violet for 30 minutes. The plates are then washed with water and allowed to air dry. Plates were imaged on GelCount and colonies were counted with Image J.
structure (smiles),measurement,value
CC(=O)O[C@@]12CO[C@@H]1C[C@H](O)[C@@]1(C)C(=O)[C@H](O)C3=C(C)[C@@H](OC(=O)[C@H](O)[C@@H](NC(=O)OC(C)(C)C)c4ccccc4)C[C@@](O)([C@@H](OC(=O)c4ccccc4)[C@H]21)C3(C)C [docetaxel],surviving fraction (relative resistance of sorted populations),significantly more resistant
